Here are results for five compounds from patent US10370622B2, “Soap bar having enhanced antibacterial activity” (Conopco, Inc., priority 2013, dated 2019).

Structures are written as SMILES.

Assay in the first data set: not given
The following applies: in water at 25° C.; cited from earlier work.
For `O=C([O-])c1ccccc1.[Ag+]` [Silver benzoate], the Ksp is 2.5e-05 mol/L.

As for `O=S(=O)([O-])[O-].[Ag+].[Ag+]` [Silver sulfate], the Ksp is 1.4e-05 mol/L.

Take `[Cl][Ag]` [Silver chloride]: the Ksp was 1.8e-10 mol/L.

For the compound `O=C([O-])CC(O)(CC(=O)[O-])C(=O)[O-].[Ag+].[Ag+].[Ag+]` [Silver citrate], the Ksp was 2.5e-18 mol/L.

As for `[Br][Ag]` [Silver bromide], the Ksp was 5.3e-13 mol/L.

The next data set in a line: Silver ion solubility derived from solubility product (Ksp) in water at 25° C. The note with it: calculated as (Ksp·x)^(1/(x+1)).
`[Cl][Ag]` [Silver chloride]: the “Silver Ion Solubility [Ag+]” value is 13 µM.
